In publication PMC9811519 (RSC Chemical Biology, 2022):
Where a SMILES comes first, the peptide text is derived from it. The star is where a group is joined. X1 = O=C(O)CN(CCN(CC(=O)O)CC(=O)O)CCN(CC(=O)O)CC(=O)NCCN1C(=O)CC(*)C1=O; Myristoyl = CCCCCCCCCCCCCC(=O)*

Columns and labels:
[1] = system: 5T33 murine myeloma cells; assay: Comparative cell uptake (cell radiolabelling yield), 10^5 cells, 2 MBq; format: cell-based
Procedure: Cell pellets were obtained by centrifugation, washed and gamma-counted.
(§1) After cell labelling, cells were washed twice with PBS and 300 μL of fresh growth media was added. Uptake efficiency was quantified at this time-point by measuring pellet and supernatant in the γ-counter. At 2, 5 and 20 h after addition of fresh media, cells were washed twice and activity in both the supernatant (original supernatant and washes) and pellet was measured using a γ-counter. Efflux was quantified as the activity of the supernatant divided by the total activity (supernatant + pellet). Cell viability was assessed prior to radiolabelling and at each time point by trypan blue exclusion.[54]

[2] = system: 5T33 murine myeloma cells; assay: Efflux / retention of indium-111 by radiolabelled cells; format: cell-based; settings: 5T33 cells washed after radiolabelling, γ-counter, SD of 3 biological replicates
Procedure: To measure efflux, cells were washed after radiolabelling and re-incubated in fresh growth medium for 2–20 h.
as §1

[3] = system: 5T33 murine myeloma cells; assay: Cell viability, trypan blue exclusion assay
Procedure: Cell viability was assessed using a trypan blue exclusion assay (Fig. 2(d) and (e)).
as §1

NSG male mice = assay: SPECT/CT imaging and ex vivo biodistribution; format: in vivo, mouse
Procedure: A SPECT/CT scan was acquired for 2 h immediately after injection (Fig. 3(a)).
Animal imaging studies were ethically reviewed by an Animal Welfare & Ethical Review Board at King's College London and carried out in accordance with the Animals (Scientific Procedures) Act 1986 (ASPA) UK Home Office regulations governing animal experimentation. […] Animals were maintained under isoflurane inhalation anaesthesia (2– 2.5% Isoflurane in air) for 2 h post-injection. […] The whole body SPECT scan time was 30 min × 4, (conducted sequentially) with a frame time of 40 s (using a 4-head scanner with 4 × 9 [1.4 mm] pinhole collimators in helical scanning mode) followed by a helical CT (45 kVP X-ray source, 1000 ms exposure time in 180 projections over 7.5 min). After this, animals were allowed to recover. SPECT/CT scans were acquired again, 1 day PI, after which all animals were culled (by increasing the dose of anaesthesia followed by cervical dislocation to confirm death) and organs/tissues harvested, weighed and radioactivity counted using a gamma counter. SPECT/CT images were reconstructed in a 256 × 256 matrix using HiSPECT (ScivisGmbH), a reconstruction software package and visualised and quantified using VivoQuant v.3.0 software (InVicro LLC., Boston, USA).

[111In+3].[O-]c1cccc2cccnc12.[O-]c1cccc2cccnc12.[O-]c1cccc2cccnc12 [[^111In]In-(oxine)3]
Cell radiolabelling yield ([1]; 1 × 10^5 5T33 cells in 200 μL, 2 MBq, 37 °C, DTPA-CTP tracer 3 h in serum-containing media, oxine tracer 30 min in serum-free media, washed, γ-counted, SD of 3 biological replicates): 20.6 ± 6.1 %AR
Average radioactivity per cell ([1]; 1 × 10^5 5T33 cells, 2 MBq added radioactivity, corresponds to the cell radiolabelling yield): 4.1 ± 1.0 Bq per cell
Indium-111 remaining associated with cells ([2]; 2 h after re-incubation in fresh growth medium): 76.0 ± 5.1%
Indium-111 remaining associated with cells ([2]; 20 h after re-incubation in fresh growth medium): 46.0 ± 9.6%
Cells viable after radiolabelling ([3]; 5T33 cells, 20 h after radiolabelling, trypan blue exclusion, prior to radiolabelling 89 ± 4% (DTPA-CTP group) and 96 ± 0.3% (oxine group), 3 biological replicates): 74 ± 6%

CCCCCCCCCCCCCC(=O)NCCCC[C@H](NC(=O)CCCCCCCCCCCCC)C(=O)N[C@@H](CO)C(=O)N[C@@H](CO)C(=O)N[C@@H](CCCCN)C(=O)N[C@@H](CO)C(=O)N1CCC[C@H]1C(=O)N[C@@H](CO)C(=O)N[C@@H](CCCCN)C(=O)N[C@@H](CCCCN)C(=O)N[C@@H](CC(=O)O)C(=O)N[C@@H](CC(=O)O)C(=O)N[C@@H](CCCCN)C(=O)N[C@@H](CCCCN)C(=O)N1CCC[C@H]1C(=O)NCC(=O)N[C@@H](CC(=O)O)C(=O)N[C@@H](CSC1CC(=O)N(CCNC(=O)CN(CCN(CCN(CC(=O)O)CC(=O)O)CC(=O)O)CC(=O)O)C1=O)C(=O)O (some centres unmarked) [[^111In]In-DTPA-CTP, metal not drawn] (Myristoyl-K(Myristoyl)SSKSPSKKDDKKPGDC(X1)-OH)
Cells viable after radiolabelling ([3]; 20 h): 88 ± 2%
Localisation of indium-111 activity by SPECT/CT (NSG male mice; NSG male mice, intravenous via tail vein, 0–2 h PI, one animal per group scanned): indium-111 activity in the blood pool and liver
Time to dissociation from cell membranes post-administration of cells (NSG male mice; [^111In]In-DTPA-CTP-labelled 5T33 cells, intravenous, NSG mice, inferred from SPECT): 1 to 2 h
